Assays:
barnyardgrass [1] = test: Test A preemergence; format: in vivo, Echinochloa crus-galli; settings: preemergence; for Barnyardgrass plant response rating (0 to 100 scale, 0 is no effect, 100 is complete control): 125 g ai/ha, visual injury approx. 10 days after treatment; for Barnyardgrass plant response rating: 500 g ai/ha, visual injury after approx. 10 days, 0 to 100 scale (0 no effect, 100 complete control)
In short: (§1)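 Visual injury rating, 0–100 (0 no effect, 100 complete control), vs untreated controls ~10 days after treatment in greenhouse. Pre: directed soil spray on seeded loam/sand. Post: 2–10 cm plants, 1–2 leaf stage. Formulation: non-phytotoxic solvent mix + surfactant.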

kochia [2] = test: Test A preemergence; format: in vivo, Kochia scoparia; settings: 125 g ai/ha, visual injury approx. 10 days after treatment
From the text: (§2) Seeds of plant species selected from barnyardgrass (Echinochloa crus-galli), kochia (Kochia scoparia), common ragweed (Ambrosia elation), Italian ryegrass (Lolium multiflorum), crabgrass, large (large crabgrass, Digitaria sanguinalis), foxtail, giant (giant foxtail, Setaria faberii), morningglory (Ipomoea spp.), pigweed (redroot pigweed, Amaranthus retroflexus), velvetleaf (Abutilon theophrasti), wheat (Triticum aestivum), and corn (Zea mays) were planted into a blend of loam soil and sand and treated preemergence with a directed soil spray using test chemicals formulated in a non-phytotoxic solvent mixture which included a surfactant.
(§3) At the same time, plants selected from these crop and weed species and also blackgrass (Alopecurus myosuroides), and galium (catchweed bedstraw, Galium aparine) were planted in pots containing the same blend of loam soil and sand and treated with postemergence applications of test chemicals formulated in the same manner. Plants ranged in height from 2 to 10 cm and were in the one- to two-leaf stage for the postemergence treatment. Treated plants and untreated controls were maintained in a greenhouse for approximately 10 days, after which time all treated plants were compared to untreated controls and visually evaluated for injury. Plant response ratings, summarized in Table A, are based on a 0 to 100 scale where 0 is no effect and 100 is complete control. A dash (-) response means no test result.

common ragweed [3] = test: Test A preemergence; format: in vivo, Ambrosia elation; settings: for Common Ragweed plant response rating (0 to 100 scale): 125 g ai/ha, visual injury approx. 10 days after treatment; for Common Ragweed plant response rating: 500 g ai/ha, visual injury after approx. 10 days, 0 to 100 scale (0 no effect, 100 complete control)
From the text: as §2, §3

Italian ryegrass [4] = test: Test A preemergence; format: in vivo, Lolium multiflorum; settings: for Italian Ryegrass plant response rating (0 to 100 scale): 125 g ai/ha, visual injury approx. 10 days after treatment; for Italian Ryegrass plant response rating: 500 g ai/ha, visual injury after approx. 10 days, 0 to 100 scale (0 no effect, 100 complete control)
From the text: as §2, §3

foxtail, giant [5] = test: Test A preemergence; format: in vivo, Setaria faberii; settings: preemergence; for Foxtail, Giant plant response rating (0 to 100 scale): 125 g ai/ha, visual injury approx. 10 days after treatment; for Foxtail, Giant plant response rating: 500 g ai/ha, visual injury after approx. 10 days, 0 to 100 scale (0 no effect, 100 complete control)
In short: as §1

pigweed [6] = test: Test A preemergence; format: in vivo, Amaranthus retroflexus; settings: preemergence, 125 g ai/ha, visual injury approx. 10 days after treatment
In short: as §1

barnyardgrass [7] = test: Test A postemergence; format: in vivo, Echinochloa crus-galli
In short: as §1

kochia [8] = test: Test A postemergence; format: in vivo, Kochia scoparia; settings: Postemergence
From the text: as §2, §3

common ragweed [9] = test: Test A postemergence; format: in vivo, Ambrosia elation
From the text: as §2, §3

Italian ryegrass [10] = test: Test A postemergence; format: in vivo, Lolium multiflorum; settings: Postemergence
From the text: as §2, §3

foxtail, giant [11] = test: Test A postemergence; format: in vivo, Setaria faberii
In short: as §1

pigweed [12] = test: Test A postemergence; format: in vivo, Amaranthus retroflexus; settings: Postemergence
In short: as §1

wheat = test: Test A postemergence; format: in vivo, Triticum aestivum; settings: Postemergence
In short: as §1

corn = test: Test A postemergence; format: in vivo, Zea mays
In short: as §1

blackgrass = test: Test A postemergence; format: in vivo, Alopecurus myosuroides
From the text: as §2, §3

galium = test: Test A postemergence; format: in vivo, Galium aparine; settings: Postemergence
From the text: as §2, §3

rice = test: Test B flood; format: in vivo, Oryza sativa; settings: 250 g ai/ha, visual rating on 0 to 100 scale (0 no effect, 100 complete control), 13 to 15 days
In short: (§4)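 Visual ratings (0 = no effect, 100 = complete control) versus untreated controls were taken 13–15 days after treatment of greenhouse plants. Treatment was added to paddy water held at 3 cm depth on 2-leaf-stage seedlings.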

sedge, umbrella = test: Test B flood; format: in vivo, Cyperus difformis; settings: 250 g ai/ha, visual rating on 0 to 100 scale (0 no effect, 100 complete control), 13 to 15 days
In short: as §4

ducksalad = test: Test B flood; format: in vivo, Heteranthera limosa; settings: 250 g ai/ha, visual rating on 0 to 100 scale (0 no effect, 100 complete control), 13 to 15 days
In short: as §4

barnyardgrass [13] = test: Test B flood; format: in vivo, Echinochloa crus-galli; settings: 250 g ai/ha, visual rating on 0 to 100 scale (0 no effect, 100 complete control), 13 to 15 days
In short: as §4

[14] = Postemergence, 125 g ai/ha, 0 to 100 scale, 0 no effect, 100 complete control
[15] = Postemergence, 500 g ai/ha, 0 to 100 scale (0 no effect, 100 complete control)
[16] = 125 g ai/ha, 0 to 100 scale, 0 no effect, 100 complete control
[17] = 500 g ai/ha, 0 to 100 scale (0 no effect, 100 complete control)
[18] = postemergence, 125 g ai/ha, about 10 days, visual rating on 0 to 100 scale (0 no effect, 100 complete control)

SMILES	Barnyardgrass plant response rating (0 to 100 scale, 0 is no effect, 100 is complete control) (barnyardgrass [1])	Barnyardgrass plant response rating (barnyardgrass [1])	Kochia plant response rating (0 to 100 scale) (kochia [2])	Common Ragweed plant response rating (0 to 100 scale) (common ragweed [3])	Common Ragweed plant response rating (common ragweed [3])	Italian Ryegrass plant response rating (0 to 100 scale) (Italian ryegrass [4])	Italian Ryegrass plant response rating (Italian ryegrass [4])	Foxtail, Giant plant response rating (0 to 100 scale) (foxtail, giant [5])	Foxtail, Giant plant response rating (foxtail, giant [5])	Pigweed plant response rating (0 to 100 scale) (pigweed [6])	Barnyardgrass plant response rating (barnyardgrass [7]; [15])	Kochia plant response rating (kochia [8]; [16])	Kochia plant response rating (kochia [8]; [17])	Common Ragweed plant response rating (common ragweed [9]; [15])	Italian Ryegrass plant response rating (Italian ryegrass [10]; [16])	Italian Ryegrass plant response rating (Italian ryegrass [10]; [17])	Foxtail, Giant plant response rating (foxtail, giant [11]; [15])	Pigweed plant response rating (pigweed [12]; [16])	Pigweed plant response rating (pigweed [12]; [17])	Wheat plant response rating (wheat; [16])	also measured
CCc1cc(C(=O)NC2CC2)nn1Cc1cc(C(F)(F)F)nn1C(C)C [Compound 212]	0	0	0	0	0	0	0	0	0	20	10	10	70	10	0	10	10	40	80	0	Barnyardgrass plant response rating (barnyardgrass [7]; [14]): 0; Common Ragweed plant response rating (common ragweed [9]; [14]): 0; Foxtail, Giant plant response rating (foxtail, giant [11]; [14]): 0; Wheat plant response rating (wheat; [17]): 10; Corn plant response rating (corn; [14]): 0; Corn plant response rating (corn; [15]): 10; Blackgrass plant response rating (blackgrass; [14]): 0; Blackgrass plant response rating (blackgrass; [15]): 10; Galium plant response rating (galium; [16]): 20; Galium plant response rating (galium; [17]): 40; Plant response rating, Rice (rice): 0; Plant response rating, Sedge, Umbrella (sedge, umbrella): 0; Plant response rating, Ducksalad (ducksalad): 0; Plant response rating, Barnyardgrass (barnyardgrass [13]): 0
CCc1cc(C(=O)NC2CC2)nn1Cc1cc(OC(F)F)nn1C [Compound 211]	0	70	50	0	40	0	20	0	80	50	50	80	90	20	0	30	60	70	100	0	Barnyardgrass plant response rating (barnyardgrass [7]; [14]): 0; Common Ragweed plant response rating (common ragweed [9]; [14]): 0; Foxtail, Giant plant response rating (foxtail, giant [11]; [14]): 0; Wheat plant response rating (wheat; [17]): 20; Corn plant response rating (corn; [14]): 30; Corn plant response rating (corn; [15]): 40; Blackgrass plant response rating (blackgrass; [14]): 0; Blackgrass plant response rating (blackgrass; [15]): 50; Galium plant response rating (galium; [16]): 20; Galium plant response rating (galium; [17]): 70; Plant response rating, Rice (rice): 0; Plant response rating, Sedge, Umbrella (sedge, umbrella): 0; Plant response rating, Ducksalad (ducksalad): 0; Plant response rating, Barnyardgrass (barnyardgrass [13]): 0
CCONC(=O)c1cc(CC)n(Cc2cc(OC(F)F)nn2C)n1 [Compound 207]	0	90	30	0	40	0	20	0	20	50	80	30	60	30	0	50	60	60	100	10	Barnyardgrass plant response rating (barnyardgrass [7]; [18]): 0; Common Ragweed plant response rating (common ragweed [9]; [18]): 0; Foxtail, Giant plant response rating (foxtail, giant [11]; [18]): 0; Wheat plant response rating (wheat; [17]): 20; Corn plant response rating (corn; [15]): 60; Corn plant response rating (corn; [18]): 30; Blackgrass plant response rating (blackgrass; [15]): 60; Blackgrass plant response rating (blackgrass; [18]): 0; Galium plant response rating (galium; [16]): 40; Galium plant response rating (galium; [17]): 80; Plant response rating, Rice (rice): 0; Plant response rating, Sedge, Umbrella (sedge, umbrella): 0; Plant response rating, Ducksalad (ducksalad): 0; Plant response rating, Barnyardgrass (barnyardgrass [13]): 0
CCc1cc(C(=O)NCC(F)(F)F)nn1Cc1cc(C(F)(F)F)nn1C(C)C [Compound 213]	0	0	0	0	0	0	0	0	0	0	0	0	0	0	0	0	0	0	0	0	Barnyardgrass plant response rating (barnyardgrass [7]; [14]): 0; Common Ragweed plant response rating (common ragweed [9]; [14]): 0; Foxtail, Giant plant response rating (foxtail, giant [11]; [14]): 0; Wheat plant response rating (wheat; [17]): 0; Corn plant response rating (corn; [14]): 0; Corn plant response rating (corn; [15]): 0; Blackgrass plant response rating (blackgrass; [14]): 0; Blackgrass plant response rating (blackgrass; [15]): 0; Galium plant response rating (galium; [16]): 0; Galium plant response rating (galium; [17]): 0; Plant response rating, Rice (rice): 0; Plant response rating, Sedge, Umbrella (sedge, umbrella): 0; Plant response rating, Ducksalad (ducksalad): 0; Plant response rating, Barnyardgrass (barnyardgrass [13]): 0
CCONC(=O)c1cc(CC)n(Cc2cc(C(F)(F)F)nn2C(C)C)n1 [Compound 208]	0	10	10	0	10	0	10	0	30	20	10	20	50	20	0	0	10	40	80	0	Barnyardgrass plant response rating (barnyardgrass [7]; [18]): 0; Common Ragweed plant response rating (common ragweed [9]; [18]): 0; Foxtail, Giant plant response rating (foxtail, giant [11]; [18]): 0; Wheat plant response rating (wheat; [17]): 0; Corn plant response rating (corn; [15]): 10; Corn plant response rating (corn; [18]): 0; Blackgrass plant response rating (blackgrass; [15]): 10; Blackgrass plant response rating (blackgrass; [18]): 0; Galium plant response rating (galium; [16]): 20; Galium plant response rating (galium; [17]): 50; Plant response rating, Rice (rice): 0; Plant response rating, Sedge, Umbrella (sedge, umbrella): 0; Plant response rating, Ducksalad (ducksalad): 0; Plant response rating, Barnyardgrass (barnyardgrass [13]): 0
